Experimental findings from patent EP0175304A2 (LABORATORI BALDACCI Spa, priority 1984, dated 1986) are described below.

The structures appear in SMILES notation. Like-named read-outs stand apart in the source and are kept apart here.

For one data set, the system named is Fibrosarcoma 3T3-B77. Put plainly: cytostatic action on fibrosarcoma cell line. Type of data set: cell-based. The note with it: compounds added in vitro in different concentrations. How it is done: (§1) Cytostatic action was tested on cellular lines of Fibrosarcoma 3T3-B77 obtained by conversion of 3T3 Bald/C fibroblasts by Bratislava 77 strain RSV virus and on MELANOMA B16-Fl cells.
(§2) The influence of cellular proliferation induced by the addition in vitro of the compounds in different concentrations was evaluated.

Another data set deals with MELANOMA B16-Fl cells. Description: cytostatic action on melanoma cells. It is filed as cell-based. The conditions noted are these: compounds added in vitro in different concentrations. The procedure: as §1, §2
The test system of the next data set is growing Swiss mouse. Put plainly: acute toxicity (LD50 and toxic symptomatology), intraperitoneal administration. It is filed as in vivo. The conditions noted are these: ip. The procedure: (§3) The compounds of the invention were tested to evaluate their antiinflammatory, analgesic, antipyretic, platelet aggregation inhibition and cytostatic pharmacological effects. At the same time acute toxicity tests were made in the mouse with evaluation of LD 50 and of the symptomatology resulting from the treatment.
(§4) LD 50 and toxic symptomatology resulting from the treatment were evaluated in the growing Swiss mouse by intraperitoneal administration of the different compounds. The period of observation was extended for 10 days after administration and the value of the lethal dose was calculated by graphic interpolation of the number of deaths.
(§5) In Table II are given acute toxicity data (LD50 calculated with the graphic method) obtained in the mouse after intraperitoneal administration of the various compounds and the symptomatological observations attributable to the treatment.

Experiment in data set [1]: as above
The note with it: in vivo, mouse, ip, 10 days observation, graphic interpolation; for LD50 at 10 days: Swiss. Type of data set: in vivo. How it is done:
as §3, §4, §5

The next data set relates to platelet aggregation. Description: platelet aggregation in vitro according to Born, inducer arachidonic acid. Type of data set: cell-based, human. The note with it: inducer 1 mM arachidonic acid. The procedure:
(§6) Inhibition of platelet aggregation was evaluated in vitro according to the Born method with various inducers (arachidonic acid, adrenalin, collagen) using as the substrate human plasma from healthy donors. For some new compounds the generation of thromboxane B2 and 6-keto-PGF according to the De Fryen method was evaluated. Platelet aggregation was studied in two successive periods: immediately after addition of the derivative and after 15 minutes of incubation at 37°C.
On some of the compounds which are the object of the present invention differentiated independently of the magnitude of the antiinflamatory, analgesic and antipyretic effect, preliminary tests in vitro were performed under the experimental conditions set forth above for the purpose of evaluating their effect on platelet reactivity.

Data set [2] is described as follows: haematic and urine rates after oral treatment (HPLC). It is filed as in vivo. The note with it: rat, 50 mg/kg os. How it is done:
To preliminarily complete the pharmacological profile of the new series of compounds which are the object of the present invention and making reference to compound 8 a pharmacological test was performed in the rat and a subacute toxicity test was performed in the same animal species. Determination was performed with HPLC of the content in biological liquids.

In a further data set the test system is TXB2. Put plainly: generation of TXB2 on whole blood after stimulation with collagen. It is filed as cell-based. The note with it: collagen 1 μg/ml. How it is done: as §6
The results obtained on the generation of TXB2 and 6-Keto-PGF evaluated to determine preliminarily the level of interaction on the biochemical. mechanisms underlying increased platelet reactivity are given in Table X.

Data set [3] deals with growing male Wistar rat. Put plainly: antipyretic action, beer yeast-induced hyperthermia. Type of data set: in vivo. The conditions noted are these: one dosage per product, 5-100 mg/kg, see column 'Dosage mg/kg ip'.
Data set [4] deals with growing male Wistar rat. Description: antiinflammatory action, carrageenin-induced paw edema. It is filed as in vivo. The conditions noted are these: one dosage per product, 5-100 mg/kg, see column 'Dosage mg/kg ip'. Background: Carrageenan injected into the paw causes an acute inflammation.
The test system of another data set is male Wistar rat. Description: analgesic action, Randall and Selitto method (carrageenin-inflamed paw). It is filed as in vivo. The note with it: one dosage per product, 5-100 mg/kg, see column 'Dosage mg/kg ip'.

One may read the LD50 as the dose at which mortality reaches 50%.

Regarding `O=C(O)CCON=C1CCCCC1` [compound 2], the “influence on cellular proliferation” value in the data set on Fibrosarcoma 3T3-B77 and in the data set on MELANOMA B16-Fl cells was “significant influence on cellular proliferation” each time. Besides, the Symptomatology entry with growing Swiss mouse is recorded as “agitation”. The same molecule registered a 50% lethal dose (LD50) at 240 h in data set [1] of 50 mg/kg.
Regarding `CC(C)=NOCCC(=O)O` [compound 3], in the data set on growing Swiss mouse, the Symptomatology result is “passivity”. Also, the LD50 at 240 h in data set [1] amounted to 300 mg/kg.
Turning to `O=C(O)CCON=Cc1cccc(Cl)c1` [compound 18], in the data set on growing Swiss mouse, the Symptomatology result was “passivity”. Further, the LD50 at 240 h in data set [1] stood at 325 mg/kg.
`O=C(O)CCON=Cc1ccc(Cl)cc1` [compound 14]: the Symptomatology entry with growing Swiss mouse was “passivity”. For the same molecule, in [1], the LD50 at 240 h stood at 350 mg/kg.
Take `O=C(O)CCO/N=C/c1ccccc1` [compound 8]: the “influence on cellular proliferation” value in the data set on Fibrosarcoma 3T3-B77 and in the data set with MELANOMA B16-Fl cells was “significant influence on cellular proliferation” each time. Also, the “Percentage response variation AM” value in the data set with platelet aggregation (5.10^-4 M) was -32.3%; in the data set on platelet aggregation (5.10^-5 M), -1.5%. Further, the “Percentage response variation Lagt” value in the data set with platelet aggregation (5.10^-4 M) is “+114.3%”; in the data set with platelet aggregation (5.10^-5 M), “+10.7%”. Also, the concentration at 1 h in data set [2] (plasma, 1 hour) was 180 µg/mL. In addition, the concentration at 2 h in data set [2] (plasma, 2 hours) came out at 145 µg/mL. Moreover, in data set [2] (plasma, 3 hours), the concentration at 3 h amounted to 142 µg/mL. The concentration at 4 h in data set [2] (plasma, 4 hours) turned out to be 141 µg/mL. In data set [2] (plasma, 6 hours), this molecule gave a concentration at 6 h of 140 µg/mL. In addition, the concentration at 24 h turned out to be 90 µg/mL in data set [2] (plasma, read-out: Plasma) and 80 µg/mL in [2] (urine, read-out: Urine). The concentration at 48 h in [2] (plasma, read-out: Plasma) was found to be 53 µg/mL; in data set [2] (urine, read-out: Urine), 17 µg/mL. The molecule further returned a concentration at 8 h in [2] (urine, 8 hours) of 30 µg/mL. Besides, in the data set with growing Swiss mouse, the Symptomatology entry is recorded as “passivity”. The molecule further came in with an LD50 at 10 days in data set [1] of 600 mg/kg. For the same molecule, the “Generation of TXB2” value in the data set with TXB2 (5.10^-4 M, 5 min, control 41.2) is listed as 11.7 (41.2) μg/ml; in the data set on TXB2 (5.10^-4 M, 15 min, control 26.5), 8.6 (26.5) μg/ml; in the data set with TXB2 (5.10^-4 M, 30 min, control 36.5), 8.5 (36.5) μg/ml; with TXB2 (5.10^-4 M, 60 min, control 65.8), 15.1 (65.8) μg/ml; with TXB2 (5.10^-5 M, 5 min, control 41.2), 54.3 (41.2) μg/ml; in the data set with TXB2 (5.10^-5 M, 15 min, control 26.5), 37.5 (26.5) μg/ml. Besides, the “Generation of TXB2” value in the data set on TXB2 (5.10^-5 M, 30 min, control 36.5) is on record as 41.4 (36.5) μg/ml; with TXB2 (5.10^-5 M, 60 min, control 65.8), 68 (65.8) μg/ml.
For `O=C(O)CCON=Cc1ccccc1Cl` [compound 17], the “Percentage response variation AM” value was -79.8% in the data set with platelet aggregation (5.10^-4 M) and -33.3% in the data set on platelet aggregation (5.10^-5 M). In addition, the “Percentage response variation Lagt” value is recorded as “+273.9%” in the data set on platelet aggregation (5.10^-4 M) and “+60.0%” with platelet aggregation (5.10^-5 M). Moreover, the Symptomatology result with growing Swiss mouse is “passivity”. This molecule displayed an LD50 at 240 h in [1] of 400 mg/kg.
As to `O=C(O)CCON=Cc1ccco1` [compound 15], in the data set on growing Swiss mouse, the Symptomatology result was “negligible”. The same molecule yielded an LD50 at 240 h in data set [1] of 1500 mg/kg.
For `O=C(O)CCO/N=C\c1ccccc1` [compound 23], the “influence on cellular proliferation” value in the data set on Fibrosarcoma 3T3-B77 and in the data set with MELANOMA B16-Fl cells was “significant influence on cellular proliferation” each time. In the data set on growing Swiss mouse, the Symptomatology entry was “passivity”. In addition, the LD50 at 10 days in [1] is 510 mg/kg.
With `CC(=NOCCC(=O)O)c1ccc(Cl)cc1` [compound 11], the Symptomatology entry in the data set on growing Swiss mouse is “agitation”. Besides, the 50% lethal dose (LD50) at 240 h in data set [1] was found to be 250 mg/kg.
As to `O=C(O)CCO/N=C/c1ccc2c(c1)OCO2` [compound 21], in the data set with growing Swiss mouse, the Symptomatology entry is “passivity”. In addition, the 50% lethal dose (LD50) at 240 h in data set [1] was found to be 525 mg/kg.
Taken in the same sequence, the figures for `O=C(O)CCON=C(c1ccccc1)c1ccccc1` [compound 7] were “passivity” and 300 mg/kg.
With `CCC(CO/N=C/c1ccccc1)C(=O)O` (stereo not drawn) [compound 25], the “influence on cellular proliferation” value in the data set with Fibrosarcoma 3T3-B77 and in the data set with MELANOMA B16-Fl cells was “significant influence on cellular proliferation” throughout. The “Antipyretic action (maximum % response in first 4 hours)” value in the data set on growing male Wistar rat [3] was determined as 35%. For the same molecule, in the data set on growing male Wistar rat [4], the “Antiinflammatory action (maximum % response in first 4 hours)” value came out at 35%. The Symptomatology entry with growing Swiss mouse was “passivity”. Moreover, the LD50 at 240 h in data set [1] amounted to 800 mg/kg. The “Analgesic action (maximum % response in first 4 hours)” value with male Wistar rat is listed as 40%.
Consider `COc1ccc(C(C)=NOCCC(=O)O)cc1` [compound 12], for which the Symptomatology result in the data set on growing Swiss mouse is reported as “passivity”. This molecule came in with an LD50 at 240 h in data set [1] of 850 mg/kg.
Regarding `O=C(O)CCON=C1CCCC1` [compound 1], the “influence on cellular proliferation” value in the data set with Fibrosarcoma 3T3-B77 and with MELANOMA B16-Fl cells was “significant influence on cellular proliferation” in each case. In the data set with growing Swiss mouse, the Symptomatology entry is given as “agitation”. The median lethal dose (LD50) at 240 h in [1] amounted to 200 mg/kg.
On to `O=C(O)CCO/N=C/c1cccs1` [compound 22], for which the “Percentage response variation AM” value is given as “+80.5%” with platelet aggregation (5.10^-4 M) and “+38.3%” in the data set with platelet aggregation (5.10^-5 M). Also, the results for the “Percentage response variation Lagt” value in the data set on platelet aggregation (5.10^-4 M) and with platelet aggregation (5.10^-5 M) were “+276.0%” and “+12.0%”, respectively. The Symptomatology entry with growing Swiss mouse is reported as “passivity”. Also, in [1], the 50% lethal dose (LD50) at 240 h stood at 1800 mg/kg.
On to `O=C(O)CCON=C1c2ccccc2-c2ccccc21` [compound 13], for which the “influence on cellular proliferation” value with Fibrosarcoma 3T3-B77 and with MELANOMA B16-Fl cells was “significant influence on cellular proliferation” each time. Moreover, the Symptomatology entry in the data set with growing Swiss mouse is “passivity”. In data set [1], the median lethal dose (LD50) at 240 h is 250 mg/kg.
`CC(=NOCCC(=O)O)c1ccccc1` [compound 6]: the Symptomatology result in the data set on growing Swiss mouse is given as “passivity”. Besides, the LD50 at 240 h in data set [1] was determined as 600 mg/kg.
In the case of `COc1ccc(OC)c(C=NOCCC(=O)O)c1` [compound 16], the “Percentage response variation AM” value is -13.3% in the data set on platelet aggregation (5.10^-4 M) and -16.1% with platelet aggregation (5.10^-5 M). Besides, the figures for the “Percentage response variation Lagt” value with platelet aggregation (5.10^-4 M) and in the data set on platelet aggregation (5.10^-5 M) were “+28.0%” and -8.0%, respectively. The Symptomatology entry in the data set on growing Swiss mouse is “passivity”. Further, the LD50 at 240 h in data set [1] turned out to be 600 mg/kg.
Take `CC(CO/N=C/c1ccccc1)C(=O)O` (stereo not drawn) [compound 24]: the “influence on cellular proliferation” value with Fibrosarcoma 3T3-B77 and in the data set on MELANOMA B16-Fl cells was “significant influence on cellular proliferation” throughout. For the same molecule, the “Antipyretic action (maximum % response in first 4 hours)” value in the data set with growing male Wistar rat [3] is 40%. Further, in the data set on growing male Wistar rat [4], the “Antiinflammatory action (maximum % response in first 4 hours)” value came out at 35%. For the same molecule, the Symptomatology result with growing Swiss mouse was “passivity”. The LD50 at 240 h in [1] was determined as 750 mg/kg. Besides, in the data set with male Wistar rat, the “Analgesic action (maximum % response in first 4 hours)” value came out at 46%.
For `CC(C)C(=NOCCC(=O)O)C(C)C` [compound 5], in the data set with growing Swiss mouse, the Symptomatology entry is on record as “agitation”. Besides, in data set [1], the 50% lethal dose (LD50) at 10 days was found to be 400 mg/kg.
`CCCC(CCC)=NOCCC(=O)O` [compound 4]: the Symptomatology entry in the data set with growing Swiss mouse is listed as “passivity”. Also, the LD50 at 240 h in [1] is 450 mg/kg.
